Measurements taken from patent US20230293565A1, “USE OF WNT/BETA-CATENIN PATHWAY INHIBITORS TO BLOCK REPLICATION OF SARS-COV-2 AND OTHER PATHOGENIC VIRUSES” (THE GOVERNORS OF THE UNIVERSITY OF ALBERTA, priority 2020, published 2023).

Tested on: SARS-CoV-2 variants (D614G, UK B.1.1.7, SA B.1.351, Brazil P.1)
Format: cell-based

Structure (SMILES) | reduction of SARS-CoV-2 variant titers
Cc1cc(/C=C/c2ccc3cc(N(C)C)ccc3[n+]2C)c(C)n1-c1ccccc1 [Pyrvinium] | 77-96%
O=C([O-])CCN1C(=O)/C(=C/c2ccc(-c3ccc([N+](=O)[O-])cc3)o2)SC1=S.[K+] [KYA1797K] | 85-96%
